Source: patent publication US11807608B2, “Polymerizable compounds with one or more surfactant-like properties” (University of Manitoba, priority 2017, dated 2023)

Assay: Surface tension by Wilhelmy plate (KRUSS K100 Tensiometer, ASTM D1331-14)
Format: physicochemical
Excerpt: A KRUSS K100 Tensiometer was used to determine the surface tension of a sample of the compounds in liquid water at different concentrations. The concentrations tested were 0.5%, 1.0%, 3.0%, 5.0% and 10%. A platinum plate with dimensions of about 19.9 mm×about 0.2 mm×about 10 mm (width, thickness and height respectfully) was attached to a sensitive mass balance. The sample was raised to the fixed platinum plate at a rate of 10 mm/min with a detection sensitivity of 0.005 g until the liquid sample reached the bottom of the plate. The plate was then immersed in the liquid sample at a depth of 2 mm for 60-150 seconds and any change in mass was recorded by the equipment as a function of time. Force was determined using the equation f=ma.
The surface tension (γ) of each liquid sample was calculated from the force measurement (f) using the equation outlined in Method C: Surface Tension by Wilhelmy plate, ASTM D1331-14.
[formula] where (l) is the length and (t) is the thickness of the plate. The contact angle was assumed to be 0. The test results describe a trend and general indication of the surfactant properties of each compound tested.

[1] = 0.5% in water, 150 second measurement
[2] = 1.0% in water, 150 second measurement
[3] = 3.0% in water, 150 second measurement
[4] = 5.0% in water, 150 second measurement
[5] = 10.0% in water, 150 second measurement

Row | Surface Tension Mean [1] [mN/m] | Surface Tension Mean [2] [mN/m] | Surface Tension Mean [3] [mN/m] | Surface Tension Mean [4] [mN/m] | Surface Tension Mean [5] [mN/m] | SMILES | Surface Tension Mean (0.5% in water, 60 second measurement) [mN/m] | Surface Tension Mean (1.0% in water, 60 second measurement) [mN/m] | Surface Tension Mean (3.0% in water, 60 second measurement) [mN/m] | Surface Tension Mean (5.0% in water, 60 second measurement) [mN/m] | Surface Tension Mean (10.0% in water, 60 second measurement) [mN/m]
1 | – | – | – | – | – | C=C(C)C(=O)NCCC[N+](C)(C)CCCCCCCCCC[N+](C)(C)C1CC(C)(C)NC(C)(C)C1.[Br-].[Br-] [Formula 5, PIP-C10-C3-methyl, methyl, acrylamide] | 36.93 | 32.55 | 31.23 | 30.28 | 29.57
2 | 47.18 | 39.51 | 36.93 | 35.50 | 36.39 | C=C(C)C(=O)OCC[N+](C)(C)CCCCCCCCCC[N+](C)(C)C1CC(C)(C)NC(C)(C)C1.[Br-].[Br-] [Formula 6] | – | – | – | – | –
3 | 37.16 | 36.19 | 35.80 | 35.84 | 30.44 | C=C(C)C(=O)OCCCCCCCCCCC[N+](C)(C)C1CC(C)(C)NC(C)(C)C1.[Br-] [Formula 9] | – | – | – | – | –
